ChEMBL document CHEMBL4011651, “Discovery of the Irreversible Covalent FGFR Inhibitor 8-(3-(4-Acryloylpiperazin-1-yl)propyl)-6-(2,6-dichloro-3,5-dimethoxyphenyl)-2-(methylamino)pyrido[2,3-d]pyrimidin-7(8H)-one (PRN1371) for the Treatment of Solid Tumors” (J Med Chem, 2017)
Each block holds one molecule with its values, some of them ahead of it.

Columns and labels:
Plasma = assay: Plasma concentration in rat at 10 mg/kg, po measured at 12 hrs post dose; assay type: ADME, organism-based; conditions: in vivo
[1] = Clearance in Sprague-Dawley rat at 2 mg/kg, iv; assay type: ADME, organism-based; conditions: in vivo
[2] = Volume of distribution at steady state in Sprague-Dawley rat at 2 mg/kg, iv; assay type: ADME, organism-based; conditions: in vivo, read-out: Vdss
[3] = Half life in Sprague-Dawley rat at 2 mg/kg, iv; assay type: ADME, organism-based; conditions: in vivo
[4] = Cmax in Sprague-Dawley rat at 2 mg/kg, iv; assay type: ADME, organism-based; set-up: dose 2 mg/kg, route intravenous; conditions: in vivo
[5] = Half life in Sprague-Dawley rat at 20 mg/kg, po; assay type: ADME, organism-based; conditions: in vivo
[6] = Cmax in Sprague-Dawley rat at 20 mg/kg, po; assay type: ADME, organism-based; set-up: dose 20 mg/kg, route oral; conditions: in vivo
[7] = AUC in Sprague-Dawley rat at 20 mg/kg, po; assay type: ADME, organism-based; conditions: in vivo
[8] = Clearance in Beagle dog at 2 mg/kg, iv; assay type: ADME, organism-based, Canis lupus familiaris; conditions: in vivo
[9] = Volume of distribution at steady state in Beagle dog at 2 mg/kg, iv; assay type: ADME, organism-based, Canis lupus familiaris; conditions: in vivo, read-out: Vdss
[10] = Cmax in Beagle dog at 2 mg/kg, iv; assay type: ADME, organism-based, Canis lupus familiaris; set-up: dose 2 mg/kg, route intravenous; conditions: in vivo
[11] = AUC in Beagle dog at 2 mg/kg, iv; assay type: ADME, organism-based, Canis lupus familiaris; conditions: in vivo
[12] = Cmax in Beagle dog at 10 mg/kg, po; assay type: ADME, organism-based, Canis lupus familiaris; set-up: dose 10 mg/kg, route oral; conditions: in vivo
[13] = AUC in Beagle dog at 10 mg/kg, po; assay type: ADME, organism-based, Canis lupus familiaris; conditions: in vivo
[14] = Oral bioavailability in Beagle dog at 10 mg/kg; assay type: ADME, organism-based, Canis lupus familiaris; conditions: in vivo
[15] = Clearance in cynomolgus monkey at 1.23 mg/kg, iv; assay type: ADME, organism-based, Macaca fascicularis; conditions: in vivo
[16] = Volume of distribution at steady state in cynomolgus monkey at 1.23 mg/kg, iv; assay type: ADME, organism-based, Macaca fascicularis; conditions: in vivo, read-out: Vdss
[17] = Half life in cynomolgus monkey at 1.23 mg/kg, iv; assay type: ADME, organism-based, Macaca fascicularis; conditions: in vivo
[18] = Cmax in cynomolgus monkey at 1.23 mg/kg, iv; assay type: ADME, organism-based, Macaca fascicularis; set-up: dose 1.23 mg/kg, route intravenous; conditions: in vivo
[19] = AUC in cynomolgus monkey at 1.23 mg/kg, iv; assay type: ADME, organism-based, Macaca fascicularis; conditions: in vivo
[20] = Half life in cynomolgus monkey at 10 mg/kg, po; assay type: ADME, organism-based, Macaca fascicularis; conditions: in vivo
[21] = Cmax in cynomolgus monkey at 10 mg/kg, po; assay type: ADME, organism-based, Macaca fascicularis; set-up: dose 10 mg/kg, route oral; conditions: in vivo
[22] = AUC in cynomolgus monkey at 10 mg/kg, po; assay type: ADME, organism-based, Macaca fascicularis; conditions: in vivo
[23] = Oral bioavailability in cynomolgus monkey at 10 mg/kg; assay type: ADME, organism-based, Macaca fascicularis; conditions: in vivo
[24] = Plasma concentration in rat at 10 mg/kg, po measured at 1 hr post dose; assay type: ADME, organism-based
in vivo = conditions: Sprague-Dawley, rat, iv, 2 mg/kg
in vitro [25] = conditions: human, plasma
in vitro [26] = conditions: human, whole blood
in vitro [27] = conditions: mouse, whole blood

Drug uptake (Plasma): Not Active
clearance [1]: 9.6 L/h/kg
Vd [2]: 7.2 L/kg
half-life [3]: 45.8 min
Cmax [4]: 0.596 µg/mL
half-life [5]: 226 min
Cmax [6]: 1.79 µg/mL
AUC [7]: 4.35 µg·h/mL
clearance [8]: 7.02 L/h/kg
Vd [9]: 2.9 L/kg
Cmax [10]: 1.09 µg/mL
AUC [11]: 0.284 µg·h/mL
Cmax [12]: 1.1 µg/mL
AUC [13]: 1.34 µg·h/mL
bioavailability [14]: 94%
clearance [15]: 2.57 L/h/kg
Vd [16]: 1.14 L/kg
half-life [17]: 20.9 min
Cmax [18]: 0.999 µg/mL
AUC [19]: 0.472 µg·h/mL
half-life [20]: 29.2 min
Cmax [21]: 0.0958 µg/mL
AUC [22]: 0.0844 µg·h/mL
bioavailability [23]: 2.3%
concentration at 1 h [24]: 0.538 µg/mL
AUC (in vivo): 0.208 µg·h/mL
remaining at 2 h (in vitro [25]): 70%
remaining at 2 h (in vitro [26]): 73%
SMILES: C=CC(=O)N1CCN(CCCn2c(=O)c(-c3c(Cl)c(OC)cc(OC)c3Cl)cc3cnc(NC)nc32)CC1 [PRN-1371]

SMILES: C=CC(=O)Nc1ccc(CCn2c(=O)c(-c3cc(OC)cc(OC)c3Cl)cc3cnc(NC)nc32)cn1
half-life (in vitro [27]): 51 min
